The text below walks through data of BindingDB's records for doi:10.7270/Q2VX0F3D (Burnham Center For Chemical Genomics, 2012).

The target of this test is T1, Corticotropin-releasing factor-binding protein (Homo sapiens, UniProt P24387).
T1 sequence (P24387 whole entry): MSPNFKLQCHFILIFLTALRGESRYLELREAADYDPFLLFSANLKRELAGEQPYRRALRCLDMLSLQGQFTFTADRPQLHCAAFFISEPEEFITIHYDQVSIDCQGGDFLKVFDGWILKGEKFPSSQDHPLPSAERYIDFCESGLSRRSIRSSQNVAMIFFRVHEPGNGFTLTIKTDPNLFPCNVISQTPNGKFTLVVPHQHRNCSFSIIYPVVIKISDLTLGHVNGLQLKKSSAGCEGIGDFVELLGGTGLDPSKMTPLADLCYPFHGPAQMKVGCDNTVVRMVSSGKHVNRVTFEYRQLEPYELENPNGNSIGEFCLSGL
The test is described as follows: activators of CRF receptor 2 with binding protein – uHTS hits, confirmation (AID 602473).

Each structure is given as a SMILES string. A value given as a limit tells only on which side of the number the result lay.

Broadly, the EC50 is the concentration that produces a half-maximal response. In turn, `Cc1ccc(S(=O)(=O)N(CC(=O)NNC2=c3ccccc3=NC2=O)c2ccc(C)c(C)c2)cc1` [SMR000207608] came in with an EC50 of over 53 µM. `Cc1ccc(CSC(=Nc2ccc(F)cc2)C(C#N)C#N)cc1` [SMR000217751] came in with an EC50 of over 53 µM. Under `Cc1nn(-c2ccccc2)c(N2CCCC2)c1CN=Nc1ccc(S(N)(=O)=O)cc1[N+](=O)[O-]` [SMR000243538] stands over 53 µM; under `COc1ccc(C(=O)C2C(=O)C(=O)N(CCN(C)C)C2c2cccnc2)cc1C` (stereo not given) [SMR000287983], over 53 µM. Compound `COc1ccc(C2c3c(n(C)c(=O)n(C)c3=O)N=C3CC(C)(C)CC(=O)C32)cc1OC` (stereo not given) [SMR000291470] registered a concentration for a half-maximal effect (EC50) of over 53 µM. Regarding `O=C1C=Cc2cc(=C3C=CCC=N3)c(=O)oc2=C1CN1CCN(CCO)CC1` [SMR000298878], the EC50 is 6.05 µM. Compound `O=c1nncc(N=NC=CCc2ccccc2)[nH]1` [SMR000413415] showed an EC50 of over 53 µM.

The compound `Nc1ccccc1Sc1cc(O)n(-c2ccc3c(c2)OCO3)c1O` [SMR000459840] showed an EC50 of over 53 µM.

`CC1=NC(=O)NC(c2cccc3ccccc23)C1C(=O)OC(C)(C)C` (stereo not given) [SMR000543036] displayed an EC50 of over 53 µM. `COc1ccc(Cn2cc(O)n(-c3cccc(Cl)c3)c2=S)cc1OC` [SMR000564410]: the EC50 was over 53 µM. Compound `Cc1cc(C)cc(NC(=O)c2ccc(-n3c(O)c4c(c3O)CCCC4)cc2)c1` [SMR000664971] registered a concentration for a half-maximal effect (EC50) of over 53 µM.

As to `COc1cccc(C2C(C(=O)c3ccc(C)o3)C(=O)C(=O)N2CCN2CCOCC2)c1OC` (stereo not given) [SMR000665042], the EC50 is over 53 µM. In turn, `Nc1ccc2c(c1)C(N=O)c1ccccc1-2` (stereo not given) [SMR001570622] gave an EC50 of over 53 µM. The compound `CN(C)c1ccc(C(N=O)c2ccccc2)cc1` (stereo not given) [[4-(dimethylamino)phenyl]-phenylmethanone oxime] yielded an EC50 of over 53 µM. In turn, `N#CC(C(=O)COC(=O)c1ccccc1O)c1nc2ccccc2s1` (stereo not given) [[(3Z)-3-(3H-1,3-benzothiazol-2-ylidene)-3-cyano-2-oxidanylidene-propyl] 2-oxidanylbenzoate] returned an EC50 of over 53 µM. `O=NC(N1CCOCC1)P(=O)(N1CCOCC1)N1CCOCC1` (stereo not given) [bis(4-morpholinyl)phosphoryl-(4-morpholinyl)methanone oxime]: the EC50 was over 53 µM. Compound `CCOC(=O)C1CCCN(c2cc(O)n(-c3ccccc3)c2O)C1` (stereo not given) [ethyl 1-(2,5-dioxo-1-phenylpyrrolidin-3-yl)piperidine-3-carboxylate] came in with an EC50 of over 53 µM. The compound `CCOC(=O)c1c(NC=C2C(=O)NC(=S)NC2=O)sc2c1CCC2` [ethyl 2-[(E)-(4,6-dioxo-2-sulfanylidene-1,3-diazinan-5-yl)methylideneamino]-5,6-dihydro-4H-cyclopenta[b]thiophene-3-carboxylate] showed an EC50 of over 53 µM. On to `COC(=O)C1=C(C)NC(=O)C1=CNc1ccc(C(C)C)cc1` [methyl (4E)-2-methyl-5-oxidanylidene-4-[[(4-propan-2-ylphenyl)amino]methylidene]-1H-pyrrole-3-carboxylate], for which the EC50 was over 53 µM. Take `COC(=O)Cc1sc(=O)[nH]c1Nc1ccc(OC)cc1` [methyl {4-[(4-methoxyphenyl)imino]-2-oxo-1,3-thiazolidin-5-yl}acetate]: the EC50 is over 53 µM.
